US9687529B2, “Method of controlling coagulation” (Duke University, priority 2011, dated 2017)

What was measured:
human prothrombin = human prothrombin (Homo sapiens, UniProt P00734); details: read-out: apparent Kd; cited from earlier work
whole blood = assay: Isolated 25-mL oxygenator circuit (Example II); details: 2 micromolar
Protocol: FIG. 18 is a photograph of the isolated 25-mL oxygenator circuit, the principal components of which are a 5-mL venous reservoir, a custom-designed polypropylene membrane oxygenator, segments of 1.6 mm internal diameter silicone tubing that connect the oxygenator with the reservoir, and a small roller pump. The oxygenator is constructed of two 10 cm×10 cm rectangular Plexiglas® shells that surround and hold a 9.5 cm×9.5 cm×1 mm polypropylene membrane. Its priming volume is 4 mL. The pump circulates the blood continuously from the reservoir through the oxygenator and back to the reservoir.
Unpublished experiments have shown that the thrombogenicity of the isolated 25-mL oxygenator circuit resembles the thrombogenicity of a CPB circuit. […] Clot formation occurred approximately 30 minutes after circulation was started. […] In contrast, UFH 5, U/mL, as well as the combination of RNA9.3t, RNA11F7t, and thrombin aptamer both prevented clot formation in blood circulated for 2 hours in the isolated circuit.

[1] = aptamer/antidote pair; neonatal porcine cardiopulmonary bypass; cited from earlier work
[2] = Cardiopulmonary bypass on a juvenile pig; type: in vivo; details: 3-hr period of CPB

R9D-14T: prothrombin/thrombin aptamer, 58-base truncation of RNA9D-14, SEQ ID NO: 3 (GGCGGTCGATCACACAGTTCAAACGTAATAAGCCAATGTACGAGGCAGACGACTCGCC; 2'-fluoro at CT, RNA at AG, backbone and T or U not given here) [Aptamer R9D-14T]
Kd (human prothrombin): 10 nM

9.3T: FIXa aptamer, 2'-fluoropyrimidine modified RNA, SEQ ID NO: 1 (AUGGGGACUAUACCGCGUAAUGCUGCCUCCCCAU; 2'-fluoro at CU, RNA at AG, backbone not given here) [Aptamer 9.3T]
clot formation in isolated oxygenator circuit (in words) (whole blood): failed to prevent clot formation
time of clot formation after circulation was started (whole blood): approximately 30 minutes
anticoagulation in CPB model (in words) [1]: sufficiently anticoagulated blood
anticoagulation during CPB (in words) [2]: failed to effect satisfactory anticoagulation
